Values of other authors, collected in patent US20140271927A1, “COMPOSITION AND METHOD FOR TREATING NEUROPATHY” (priority 2013, published 2014).

Conditions: published studies reviewed

## [Cr] [chromium]
  lowering the HbgAlc: 1-2%
